Patent US11306096B2, “4,6 dihydropyrrolo [3,4-C] pyrazole-5 (1H)-carbonitrile derivates for treating cancer” (MISSION THERAPEUTICS LIMITED, priority 2016, dated 2022)

target: USP7 (Homo sapiens (Human), UniProt Q93009); assay: USP7 Biochemical IC50 Assay; settings: FLAG-USP7; enzyme and compound incubated 30 min at room temp; TAMRA labelled peptide-ubiquitin fluorescence polarisation substrate; read after 2 hr; read-out: IC50 range
Method: The USP7 construct was PCR amplified and cloned into a pFLAG-CMV-6a vector (Sigma-Aldrich) with an N-terminal FLAG tag. HEK293T cells were transfected with FLAG-USP7 using TransIT-LT1 transfection reagent (Mirus) according to the manufacturer's instructions. Cells were harvested 40 hours after transfection. […] The resin was washed two times with low salt buffer plus protease inhibitors (complete mini, Roche) and phosphatase inhibitors (PhosSTOP mini, Roche) and one time with high salt buffer (20 mM Tris, pH 7.5, 500 mM NaCl, 0.5 mM EDTA, 5 mM beta-mercaptoethanol, protease inhibitors (complete mini, Roche) and phosphatase inhibitors (PhosSTOP mini, Roche). To elute the bound USP7, elution buffer (10 mM Tris, pH 7.5, 150 mM NaCl, 0.5 mM EDTA, 10% glycerol, 0.5% NP40, 5 mM beta-mercaptoethanol, 0.15 mg/ml 3×FLAG peptide (Sigma-Aldrich)) was added to the resin and incubated at 4° C. for 2.5 hours rotating. The resin was centrifuged at 4000 rpm for 30 seconds, and the supernatant containing purified FLAG-USP7 was removed and stored at −80° C.
USP7 Biochemical IC50 Assay
A typical 8-point dilution series would be 100, 30, 10, 3, 1, 0.3, 0.1, 0.03 μM final. […] Either 1 μl of 50% DMSO or diluted compound was added to the plate. USP7 was diluted in reaction buffer (20 mM Tris, pH 7.5, 100 mM NaCl, 0.05% Tween 20, 0.5 mg/ml BSA, 5 mM—beta mercaptoethanol) to the equivalent of 0.0025 μl/well and 10 μl of diluted USP7 was added to the compound. Enzyme and compound were incubated for 30 min at room temp. Reactions were initiated by the addition of 50 nM of TAMRA labelled peptide linked to ubiquitin via an iso-peptide bond as fluorescence polarisation substrate. Reactions were read immediately after addition of substrate and following a 2 hr incubation at room temperature. Readings were performed on a Pherastar Plus (BMG Labtech). λ Excitation 540 nm; λ Emission 590 nm.

Sequence of USP7 (Q93009 whole entry): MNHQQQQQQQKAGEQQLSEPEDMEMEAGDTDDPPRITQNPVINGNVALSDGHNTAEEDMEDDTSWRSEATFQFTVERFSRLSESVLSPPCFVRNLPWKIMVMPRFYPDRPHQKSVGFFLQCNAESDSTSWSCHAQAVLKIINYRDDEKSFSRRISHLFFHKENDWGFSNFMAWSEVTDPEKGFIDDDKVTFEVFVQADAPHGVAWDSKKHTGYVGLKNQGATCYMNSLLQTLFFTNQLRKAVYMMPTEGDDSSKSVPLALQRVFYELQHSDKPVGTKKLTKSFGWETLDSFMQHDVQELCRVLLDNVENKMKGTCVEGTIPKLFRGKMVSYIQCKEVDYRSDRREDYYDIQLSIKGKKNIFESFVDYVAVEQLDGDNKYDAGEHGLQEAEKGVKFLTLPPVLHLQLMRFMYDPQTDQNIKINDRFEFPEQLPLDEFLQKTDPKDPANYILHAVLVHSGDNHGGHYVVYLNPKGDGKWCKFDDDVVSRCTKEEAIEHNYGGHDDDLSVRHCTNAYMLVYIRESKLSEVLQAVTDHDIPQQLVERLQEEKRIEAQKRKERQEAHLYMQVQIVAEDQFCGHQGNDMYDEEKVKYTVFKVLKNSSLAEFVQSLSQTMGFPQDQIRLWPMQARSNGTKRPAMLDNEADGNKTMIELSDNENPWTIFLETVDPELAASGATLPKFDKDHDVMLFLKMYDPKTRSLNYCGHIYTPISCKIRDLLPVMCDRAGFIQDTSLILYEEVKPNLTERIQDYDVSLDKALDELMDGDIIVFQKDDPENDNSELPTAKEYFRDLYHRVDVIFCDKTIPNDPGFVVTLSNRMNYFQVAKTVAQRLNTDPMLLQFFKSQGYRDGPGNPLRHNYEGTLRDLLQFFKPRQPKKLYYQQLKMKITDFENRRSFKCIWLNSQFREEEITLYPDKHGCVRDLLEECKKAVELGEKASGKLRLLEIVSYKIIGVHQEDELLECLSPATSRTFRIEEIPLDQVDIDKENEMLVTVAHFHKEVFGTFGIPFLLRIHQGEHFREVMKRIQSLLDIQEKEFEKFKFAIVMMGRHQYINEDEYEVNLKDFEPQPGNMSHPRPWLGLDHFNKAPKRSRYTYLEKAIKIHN

Row | Compound | IC50 [µM]
1 | N#CN1Cc2[nH]nc(-c3ccc(Oc4ccccc4)cc3)c2C1 [Example 41, 3-(4-Phenoxyphenyl)-4,6-dihydropyrrolo[3,4-c]pyrazole-5(1H)-carbonitrile] | < 10
2 | N#CN1Cc2[nH]nc(-c3cc(OC(F)(F)F)ccc3Cl)c2C1 [Example 44, 3-(2-Chloro-5-(trifluoro-methoxy)phenyl)-4,6-dihydropyrrolo[3,4-c]pyrazole-5(1H)-carbonitrile] | < 10
3 | N#CN1Cc2[nH]nc(-c3ccc(C(=O)NCc4ccccc4)cc3)c2C1 [Example 49, N-Benzyl-4-(5-cyano-1,4,5,6-tetrahydropyrrolo[3,4-c]pyrazol-3-yl)benzamide] | < 10
4 | CN1CCN(C(=O)c2ccc(-c3n[nH]c4c3CN(C#N)C4)cc2)CC1 [Example 51, 3-(4-(4-Methylpiperazine-1-carbonyl)phenyl)-4,6-dihydropyrrolo[3,4-c]pyrazole-5(1H)-carbonitrile] | < 10
5 | N#CN1Cc2[nH]nc(-c3ccnn3Cc3ccccc3)c2C1 [Example 53, 3-(1-Benzyl-1H-pyrazol-5-yl)-4,6-dihydropyrrolo[3,4-c]pyrazole-5(1H)-carbonitrile] | 10 to 30
6 | Cc1ccc2[nH]ncc2c1-c1n[nH]c2c1CN(C#N)C2 [Example 54, 3-(5-Methyl-1H-indazol-4-yl)-4,6-dihydropyrrolo[3,4-c]pyrazole-5(1H)-carbonitrile] | < 10
7 | Cc1ccc(F)c(-c2nn(C)c3c2CN(C#N)C3)c1 [Example 60, 3-(2-fluoro-5-methylphenyl)-1-methyl-4,6-dihydropyrrolo[3,4-c]pyrazole-5(1H)-carbonitrile] | < 10
8 | Cc1ccc(F)c(-c2c3c(nn2C)CN(C#N)C3)c1 [Example 61, 3-(2-fluoro-5-methylphenyl)-2-methyl-2,6-dihydropyrrolo[3,4-c]pyrazole-5(4H)-carbonitrile] | 10 to 30
9 | COc1ccc(C(C)C)cc1-c1nn(C)c2c1CN(C#N)C2 [Example 62, 3-(5-Isopropyl-2-methoxyphenyl)-1-methyl-4,6-dihydropyrrolo[3,4-c]pyrazole-5(1H)-carbonitrile] | < 10
10 | COc1ccc(C(C)C)cc1-c1c2c(nn1C)CN(C#N)C2 [Example 63, 3-(5-Isopropyl-2-methoxyphenyl)-2-methyl-2,6-dihydropyrrolo[3,4-c]pyrazole-5(4H)-carbonitrile] | 10 to 30
11 | N#CN1Cc2[nH]nc(CNC(=O)c3cn4cc(Cl)ccc4n3)c2C1 [Example 65, 6-Chloro-N-((5-cyano-1,4,5,6-tetrahydropyrrolo[3,4-c]pyrazol-3-yl)methyl)-imidazo[1,2-a]pyridine-2-carboxamide] | < 10
12 | CN1CCN(c2ccc(-c3n[nH]c4c3CN(C#N)C4)cc2)CC1 [Example 66, 3-(4-(4-Methylpiperazin-1-yl)phenyl)-4,6-dihydro-pyrrolo[3,4-c]pyrazole-5(1H)-carbonitrile] | < 10
13 | CN1CCC(n2cc(-c3n[nH]c4c3CN(C#N)C4)cn2)CC1 [Example 68, 3-(1-(1-Methylpiperidin-4-yl)-1H-pyrazol-4-yl)-4,6-dihydropyrrolo[3,4-c]pyrazole-5(1H)-carbonitrile] | < 10
14 | CN1CCN(c2ccc(-c3n[nH]c4c3CN(C#N)C4)cn2)CC1 [Example 69, 3-(6-(4-Methylpiperazin-1-yl)pyridin-3-yl)-4,6-dihydropyrrolo[3,4-c]pyrazole-5(1H)-carbonitrile] | < 10
15 | COc1cc(-n2cccn2)ccc1-c1n[nH]c2c1CN(C#N)C2 [Example 70, 3-(2-Methoxy-4-(1H-pyrazol-1-yl)phenyl)-4,6-dihydropyrrolo[3,4-c]pyrazole-5(4H)-carbonitrile] | < 10
16 | N#CN1Cc2[nH]nc(-c3ccc(N4CCOCC4)cc3)c2C1 [Example 72, 3-(4-Morpholinophenyl)-4,6-dihydropyrrolo[3,4-c]pyrazole-5(1H)-carbonitrile] | < 10
17 | CN1CCN(c2ccc(-c3n[nH]c4c3CN(C#N)C4)c(F)c2)CC1 [Example 73, 3-(2-Fluoro-4-(4-methylpiperazin-1-yl)phenyl)-4,6-dihydro-pyrrolo[3,4-c]pyrazole-5(1H)-carbonitrile] | < 10
18 | Cc1cc(-c2n[nH]c3c2CN(C#N)C3)ccc1N1CCN(C)CC1 [Example 74, 3-(3-Methyl-4-(4-methylpiperazin-1-yl)phenyl)-4,6-dihydro-pyrrolo[3,4-c]pyrazole-5(1H)-carbonitrile] | < 10
19 | COc1ccc(Cl)cc1-c1n[nH]c2c1CN(C#N)C2 [Example 77, 3-(5-Chloro-2-methoxyphenyl)-4,6-dihydropyrrolo[3,4-c]pyrazole-5(4H)-carbonitrile] | < 10
20 | N#CN1Cc2cnn(-c3cccc(NS(=O)(=O)C4CC4)c3)c2C1 [Example 78, N-(3-(5-Cyano-5,6-dihydropyrrolo[3,4-c]pyrazol-1(4H)-yl)phenyl) cyclopropanesulfonamide] | 10 to 30
21 | N#CN1Cc2[nH]nc(-c3ccc(C(=O)NCc4ccccc4)cc3F)c2C1 [Example 79, N-Benzyl-4-(5-cyano-1,4,5,6-tetrahydropyrrolo[3,4-c]pyrazol-3-yl)-3-fluorobenzamide] | < 10

Further lines, results first:

Row | IC50 [µM] | Compound
22 | < 10 | N#Cc1ccc(-c2n[nH]c3c2CN(C#N)C3)cc1 [Example 42, 3-(4-Cyanophenyl)-4,6-dihydropyrrolo[3,4-c]pyrazole-5(1H)-carbonitrile]
23 | < 10 | N#CN1Cc2[nH]nc(-c3ccc(C(F)(F)F)cc3F)c2C1 [Example 43, 3-(2-Fluoro-4-(trifluoromethyl)phenyl)-4,6-dihydropyrrolo[3,4-c]pyrazole-5(1H)-carbonitrile]
24 | < 10 | CNC(=O)c1ccc(-c2n[nH]c3c2CN(C#N)C3)cn1 [Example 45, 5-(5-Cyano-1,4,5,6-tetrahydropyrrolo[3,4-c]pyrazol-3-yl)-N-methylpicolinamide]
25 | < 10 | COc1ccc(-c2n[nH]c3c2CN(C#N)C3)cn1 [Example 46, 3-(6-Methoxypyridin-3-yl)-4,6-dihydro-pyrrolo[3,4-c]pyrazole-5(1H)-carbonitrile]
26 | < 10 | CN(C)S(=O)(=O)c1cccc(-c2n[nH]c3c2CN(C#N)C3)c1 [Example 47, 3-(5-Cyano-1,4,5,6-tetrahydropyrrolo[3,4-c]pyrazol-3-yl)-N,N-dimethylbenzene-sulfonamide]
27 | < 10 | CC(C)Oc1ccc(F)cc1-c1n[nH]c2c1CN(C#N)C2 [Example 48, 3-(5-Fluoro-2-isopropoxyphenyl)-4,6-dihydropyrrolo[3,4-c]pyrazole-5(1H)-carbonitrile]
28 | < 10 | CC(C)Oc1ccc(-c2n[nH]c3c2CN(C#N)C3)cn1 [Example 50, 3-(6-Isopropoxypyridin-3-yl)-4,6-dihydropyrrolo[3,4-c]pyrazole-5(1H)-carbonitrile]
29 | < 10 | Cn1ncc2cc(-c3n[nH]c4c3CN(C#N)C4)ccc21 [Example 52, 3-(1-Methyl-1H-indazol-5-yl)-4,6-dihydropyrrolo[3,4-c]pyrazole-5(1H)-carbonitrile]
30 | < 10 | N#CN1Cc2[nH]nc(-c3cccc(S(=O)(=O)NC4CC4)c3)c2C1 [Example 55, 3-(5-Cyano-1,4,5,6-tetrahydropyrrolo[3,4-c]pyrazol-3-yl)-N-cyclopropylbenzene-sulfonamide]
31 | < 10 | N#CN1Cc2[nH]nc(-c3cccc(NS(=O)(=O)C4CC4)c3)c2C1 [Example 56, N-(3-(5-Cyano-1,4,5,6-tetrahydropyrrolo[3,4-c]pyrazol-3-yl)phenyl)cyclo-propanesulfonamide]
32 | < 10 | N#CN1Cc2[nH]nc(-c3cccc(F)c3)c2C1 [Example 57, 3-(3-Fluorophenyl)-4,6-dihydropyrrolo[3,4-c]pyrazole-5(1H)-carbonitrile]
33 | < 10 | N#CN1Cc2[nH]nc(-c3ccccc3F)c2C1 [Example 58, 3-(2-Fluorophenyl)-4,6-dihydropyrrolo[3,4-c]pyrazole-5(1H)-carbonitrile]
34 | < 10 | N#CN1Cc2[nH]nc(-c3ccc(F)cc3)c2C1 [Example 59, 3-(4-Fluorophenyl)-4,6-dihydropyrrolo[3,4-c]pyrazole-5(1H)-carbonitrile]
35 | < 10 | CCc1ccc(OC)c(-c2n[nH]c3c2CN(C#N)C3)c1 [Example 64, 3-(5-Ethyl-2-methoxyphenyl)-4,6-dihydropyrrolo[3,4-c]pyrazole-5(1H)-carbonitrile]
36 | < 10 | COc1cc(Cl)ccc1-c1n[nH]c2c1CN(C#N)C2 [Example 67, 3-(4-Chloro-2-methoxyphenyl)-4,6-dihydropyrrolo[3,4-c]pyrazole-5(4H)-carbonitrile]
37 | < 10 | CN1CCN(c2cccc(-c3n[nH]c4c3CN(C#N)C4)c2)CC1 [Example 71, 3-(3-(4-Methylpiperazin-1-yl)phenyl)-4,6-dihydropyrrolo[3,4-c]pyrazole-5(1H)-carbonitrile]
